Test: Measurement of oxidation induction time (OIT) by DSC
Conditions: with liquid polyisoprene LIR-50, isothermal 180° C., O2 atmosphere 50 mL/min, DSC peak; measurement accuracy ±10 min
Procedure: The compound of formula III) was investigated under laboratory conditions for their potential protective effect as aging stabilizers by measurement of the oxidation induction time.
To this end the compounds of formula III) and 6-PPD in each case together with a polymer (liquid synthetic polyisoprene (IR), LIR-50, Kuraray, weight average molecular weight distribution MW=54 000 g/mol, glass transition temperature Tg=−63° C.) were heated at constant temperature (180° C.) until onset of oxidation (start temperature 35° C., heating to 170° C. at a heating rate of 20 K/min (kelvin per minute), heating to 180° C. at a heating rate of 1 K/min; purge gas: nitrogen (N2), volume flow 50 mL/min). The specimen was isothermally maintained for 5 minutes at 180° C. under an N2 atmosphere and the atmosphere was then switched to an O2 atmosphere (volume flow 50 mL/min).
Oxidation was determined via a peak using DSC (differential scanning calorimetry).
The time in minutes to oxidation was measured.

SMILES: CC(C)CC(C)Nc1ccc(-c2cc3ccccc3[nH]2)cc1 (centres unmarked)
- Oxidation induction time (time to oxidation): 121 ± 10 min

SMILES: CC(C)CC(C)Nc1ccc(Nc2ccccc2)cc1 (centres unmarked) [Compound 6-PPD, N-(1,3-dimethylbutyl)-N′-phenyl-p-phenylenediamine]
- Oxidation induction time (time to oxidation): 116 ± 10 min

Source: patent US20240336564A1, “COMPOUND, RUBBER MIXTURE CONTAINING THE COMPOUND, VEHICLE TIRE WHICH HAS AT LEAST ONE COMPONENT COMPRISING THE RUBBER MIXTURE, PROCESS FOR PREPARING THE COMPOUND, AND USE OF THE COMPOUND AS AN AGING PROTECTION AGENT AND/OR ANTIOZONANT AND/OR COLORANT” (CONTINENTAL REIFEN DEUTSCHLAND GMBH, priority 2021, published 2024)
